Tested on: NOMO1
Test: cell viability relative to DMSO control; higher = less cytotoxic
Details: 48 h
How it was run: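 In 1536-well plates, 5 μl of leukemia cells were seeded per well: 500 cells/well for NOMO1 or SEM and 1000 cells/well for P12-Ichikawa. Each line had first been adapted for at least four passages in each medium. Library compounds in DMSO were pin-dosed at 11 threefold concentrations between 47 μM and 0.79 nM, and CellTiter-Glo One luminescence was read after 48 h at 37°C. Viability is a per-plate percentage relative to DMSO wells, with cell-free wells as background.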

[1] = HPLM + 10% dialyzed FBS, 0.000781 µM
[2] = HPLM + 10% dialyzed FBS, 0.00234 µM
[3] = HPLM + 10% dialyzed FBS, 0.00702 µM
[4] = HPLM + 10% dialyzed FBS, 0.0211 µM
[5] = HPLM + 10% dialyzed FBS, 0.0632 µM
[6] = HPLM + 10% dialyzed FBS, 0.19 µM
[7] = HPLM + 10% dialyzed FBS, 0.569 µM
[8] = HPLM + 10% dialyzed FBS, 1.71 µM
[9] = HPLM + 10% dialyzed FBS, 5.12 µM
[10] = HPLM + 10% dialyzed FBS, 15.4 µM
[11] = HPLM + 10% dialyzed FBS, 46.1 µM
[12] = RPMI 5 mM glucose + 10% FBS, 0.000781 µM
[13] = RPMI 5 mM glucose + 10% FBS, 0.00234 µM
[14] = RPMI 5 mM glucose + 10% FBS, 0.00702 µM
[15] = RPMI 5 mM glucose + 10% FBS, 0.0211 µM
[16] = RPMI 5 mM glucose + 10% FBS, 0.0632 µM
[17] = RPMI 5 mM glucose + 10% FBS, 0.19 µM
[18] = RPMI 5 mM glucose + 10% FBS, 0.569 µM
[19] = RPMI 5 mM glucose + 10% FBS, 1.71 µM
[20] = RPMI 5 mM glucose + 10% FBS, 5.12 µM
[21] = RPMI 5 mM glucose + 10% FBS, 15.4 µM
[22] = RPMI 5 mM glucose + 10% FBS, 46.1 µM
[23] = RPMI 5 mM glucose + 10% dialyzed FBS, 0.000781 µM
[24] = RPMI 5 mM glucose + 10% dialyzed FBS, 0.00234 µM
[25] = RPMI 5 mM glucose + 10% dialyzed FBS, 0.00702 µM
[26] = RPMI 5 mM glucose + 10% dialyzed FBS, 0.0211 µM
[27] = RPMI 5 mM glucose + 10% dialyzed FBS, 0.0632 µM
[28] = RPMI 5 mM glucose + 10% dialyzed FBS, 0.19 µM
[29] = RPMI 5 mM glucose + 10% dialyzed FBS, 0.569 µM
[30] = RPMI 5 mM glucose + 10% dialyzed FBS, 1.71 µM
[31] = RPMI 5 mM glucose + 10% dialyzed FBS, 5.12 µM
[32] = RPMI 5 mM glucose + 10% dialyzed FBS, 15.4 µM
[33] = RPMI 5 mM glucose + 10% dialyzed FBS, 46.1 µM

| SMILES | cell viability [1] [%] | cell viability [2] [%] | cell viability [3] [%] | cell viability [4] [%] | cell viability [5] [%] | cell viability [6] [%] | cell viability [7] [%] | cell viability [8] [%] | cell viability [9] [%] | cell viability [10] [%] | cell viability [11] [%] | cell viability [12] [%] | cell viability [13] [%] | cell viability [14] [%] | cell viability [15] [%] | cell viability [16] [%] | cell viability [17] [%] | cell viability [18] [%] | cell viability [19] [%] | cell viability [20] [%] | cell viability [21] [%] | cell viability [22] [%] | cell viability [23] [%] | cell viability [24] [%] | cell viability [25] [%] | cell viability [26] [%] | cell viability [27] [%] | cell viability [28] [%] | cell viability [29] [%] | cell viability [30] [%] | cell viability [31] [%] | cell viability [32] [%] | cell viability [33] [%] |
| --- | --- | --- | --- | --- | --- | --- | --- | --- | --- | --- | --- | --- | --- | --- | --- | --- | --- | --- | --- | --- | --- | --- | --- | --- | --- | --- | --- | --- | --- | --- | --- | --- | --- |
| Cc1ccccc1C(C(=O)NC1CCCCC1)N(C(=O)CNc1ccc(C#N)cc1)c1cccc(F)c1 (configuration not stated) | 103 | 111 | 115 | 106 | 98.3 | 111 | 112 | 99.4 | 114 | 84.2 | 82.8 | 77.2 | 88.5 | 94.5 | 87.7 | 103 | 94 | 93.7 | 100 | 89.6 | 90.1 | 87.3 | 71.9 | 110 | 140 | 142 | 98.5 | 84.7 | 88.2 | 70.1 | 80.3 | 97 | 76.9 |
| CN1C(=O)COc2c(C(=O)NC3CN4CCC3CC4)cc(Cl)cc21 (configuration not stated) | 68.8 | 121 | 112 | 107 | 105 | 104 | 119 | 109 | 104 | 111 | 108 | 90.2 | 106 | 94.2 | 88.8 | 110 | 109 | 99 | 92.1 | 90.6 | 105 | 85.6 | 104 | 102 | 106 | 93.2 | 97.1 | 91.6 | 97.6 | 89.7 | 90.5 | 85.8 | 97.7 |
| Cc1cc(SCc2sc(-c3ccc(C(F)(F)F)c(F)c3)nc2C)ccc1OCC(=O)O | 104 | 110 | 120 | 87.7 | 114 | 103 | 110 | 95.4 | 93.7 | 96.6 | 92.9 | 98.2 | 90.4 | 86 | 90.3 | 91 | 98.8 | 99.6 | 88.8 | 88.7 | 92.6 | 86.8 | 99.5 | 103 | 93.5 | 95 | 99.2 | 111 | 97.9 | 94 | 104 | 87.4 | 97 |
| CN1[C@@H]2CC(O)C[C@H]1[C@@H]1O[C@@H]12 (some centres not stated) |  |  |  |  |  |  |  |  |  |  |  | 111 | 125 | 121 | 121 | 113 | 118 | 103 | 113 | 121 | 111 | 6.78 |  |  |  |  |  |  |  |  |  |  |  |
| CCC(CC)[C@H](NC(C)=O)[C@@H]1[C@H](O)[C@@H](C(=O)O)C[C@H]1NC(=N)N | 67.7 | 72 | 78 | 85 | 80.9 | 96.4 | 90.3 | 90.8 | 87.7 | 82.8 | 94.9 | 81.8 | 85 | 88.7 | 85.8 | 89 | 84.3 | 90 | 87.1 | 84.1 | 79.5 | 81.1 | 80.4 | 79.7 | 82.6 | 80.4 | 93 | 83 | 90.2 | 81.7 | 78.2 | 78.3 | 83.1 |
| CC1OC(OC/2=C(/OC3=C(C(=CC(=C3)O)O)C2=O)C4=CC=C(O)C=C4)C(O)C(OC(C)=O)C1OC(C)=O (configuration not stated) | 119 | 109 | 137 | 130 | 111 | 110 | 112 | 112 | 120 | 101 | 78.9 | 120 | 116 | 110 | 100 | 117 | 111 | 96.8 | 96.9 | 103 | 94.3 | 68.9 | 96.7 | 108 | 109 | 111 | 112 | 114 | 118 | 104 | 111 | 99.2 | 77.2 |
| c1cc(-c2sc(-c3ccncc3)c(-c3ccncc3)c2-c2ccncc2)ccn1 | 88.1 | 111 | 117 | 111 | 108 | 129 | 140 | 114 | 124 | 116 | 78.3 | 118 | 128 | 106 | 105 | 113 | 118 | 127 | 103 | 98.2 | 109 | 93.4 | 94.1 | 107 | 106 | 104 | 117 | 106 | 114 | 105 | 101 | 90.9 | 92.3 |
| CCc1cc(/C(C)=N/OCc2ccc(C3CCCCC3)c(C(F)(F)F)c2)ccc1CN1CC(C(=O)O)C1 | 111 | 133 | 106 | 108 | 129 | 109 | 108 | 79.1 | 66.4 | 31.8 | 40.1 | 110 | 113 | 104 | 115 | 135 | 115 | 120 | 107 | 107 | 26.8 | 20.9 | 99 | 116 | 117 | 112 | 119 | 114 | 115 | 103 | 103 | 26.6 | 29 |

Reference: the supplement of paper PMC11451515
